Assays:
[1] = target: T1, Protein HGH1 homolog (HGH1) (Homo sapiens, UniProt Q9BTY7); test: In situ competitive profiling in live MCF7 cells (LFQ): HGH1; type: cell-based; details: 4 h, then 10 µM 24c, n=4
T1 construct: 1,522 proteins were enriched from MCF7 cells by 10 μM probe 24c; endogenous in cells; host or cells: MCF7
Text: In our efforts to determine the direct molecular targets of deoxyelephantopin we first performed a gel-based competitive in situ proteomic profiling assay[41] […] While the greater conformational flexibility of probe 24c could potentially lead to more promiscuous target engagement relatively to deoxyelephantopin, it was favoured based on the fact that an alkyne moiety appended to the rigid scaffold of deoxyelephantopin may hinder some of its interactions. MCF7 cells were pretreated with various concentrations of deoxyelephantopin for 4 h, harvested, lysed and the lysates were treated with the fluorogenic probe 24c-Cy3 (10 μM; Supplementary Fig. 10). […] Furthermore, cells were pretreated with 20 μM concentration of deoxyelephantopin or 24c and the proteomic profiles were compared (Fig. 6b, Supplementary Fig. 11). Multiple bands were detected that were equally competed by both DEP and 24c, thus again confirming that 24c can be used as an acceptable clickable analogue of deoxyelephantopin in pulldown assays. Having established the optimal labelling conditions by SDS–PAGE, we next carried out a mass spectrometry-based competitive profiling assay[42] coupled with the method of stable isotope labelling of amino acids in culture (SILAC)[43]. […]
Figure 6 Proteome-wide identification of deoxyelephantopin targets. […] Quantification was performed using label-free quantification (LFQ) method (n=4). […]

PPARγ = details: cited from earlier work

T1 sequence (Q9BTY7 whole entry): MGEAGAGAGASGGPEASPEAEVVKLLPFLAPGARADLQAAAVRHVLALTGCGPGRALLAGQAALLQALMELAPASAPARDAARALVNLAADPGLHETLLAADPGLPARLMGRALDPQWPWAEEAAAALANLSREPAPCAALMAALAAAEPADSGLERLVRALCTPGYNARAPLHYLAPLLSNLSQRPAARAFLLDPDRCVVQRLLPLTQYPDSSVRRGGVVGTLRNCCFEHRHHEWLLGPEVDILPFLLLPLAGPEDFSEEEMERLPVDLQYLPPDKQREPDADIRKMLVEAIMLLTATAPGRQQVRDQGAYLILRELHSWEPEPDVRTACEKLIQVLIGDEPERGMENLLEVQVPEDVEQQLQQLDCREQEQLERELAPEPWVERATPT

In the case of `C=C(C)C(=O)O[C@H]1CC2=C[C@@H](C/C(C)=C/[C@H]3OC(=O)C(=C)[C@H]13)OC2=O` [deoxyelephantopin], the “LFQ ratio 20 µM Deoxyelephantopin/DMSO with 24c” value [1] is given as 0.00 and the “action on PPARγ (SPR)” value (PPARγ) is given as “partial agonist”.

— paper PMC4992173, “Divergent synthesis and identification of the cellular targets of deoxyelephantopins” (Nature Communications, 2016)
